The subject of series [1] is MX1. Kind of series: Antitumor activity against human MX1 cells xenografted in nu/nu nude mouse assessed as complete tumor remission at 150 mg/kg, iv administered as injection in Q2D x 5 schedule measured on day 70. The class given is functional, organism-based. Also on record: dose 150 mg/kg.
For series [2], the system named is MX1. As to the kind of experiment: Antitumor activity against human MX1 cells xenografted in nu/nu nude mouse assessed as complete tumor remission at 150 mg/kg, iv administered as injection in Q2D x 5 schedule measured on day 16. The class given is functional, organism-based. Further details: dose 150 mg/kg. For orientation: In xenograft studies the graft and the host belong to different species.

A short description of series [3]: Cytotoxicity against human CL1-5 cells after 72 hrs by alamar blue assay. It is filed as functional, cell-based. As to conditions: CL1-5, 72 h. For orientation: Resazurin is reduced to fluorescent resorufin, in cell work by metabolically active cells.
A short description of series [4]: Metabolic stability in rat plasma assessed as half life. The class given is ADME, cell-free.
The subject of series [5] is PC-3. Kind of series: Cytotoxicity against human PC3 cells after 72 hrs by alamar blue assay. The class given is functional, cell-based. To be noted: PC-3, 72 h.
In series [6] the test system is CCRF-CEM. As to the kind of experiment: Selectivity ratio of IC50 for vinblastine-resistant human CCRF-CEM cells to IC50 for human CCRF-CEM cells. The class given is functional.
The test system of series [7] is Mus musculus. Kind of series: Toxicity in nu/nu nude mouse assessed as body weight loss at 100 mg/kg, iv administered as injection in Q2D x 6 schedule. It is filed as organism-based. Also on record: dose 100 mg/kg, route intravenous. As to conditions: in vivo.
In series [8] the test system is CCRF-CEM. Kind of series: Cytotoxicity against taxol-resistant human CCRF-CEM cells after 72 hrs by XTT assay. It is filed as functional, cell-based. In general terms: Tetrazolium dyes change colour on reduction, which living cells bring about.
Series [9] concerns Nucleic Acid. Kind of series: Binding affinity to pEGFP-N1 DNA assessed as formation of interstrand cross-links with DNA by alkaline gel shift assay. It is filed as nucleic-acid assay.
In series [10] the test system is CCRF-CEM. As to the kind of experiment: Selectivity ratio of IC50 for taxol-resistant human CCRF-CEM cells to IC50 for human CCRF-CEM cells. The class given is functional.
Series [11] can be described thus: Cytotoxicity against human CL1-0 cells after 72 hrs by alamar blue assay. The class given is functional, cell-based. To be noted: CL1-0, 72 h.
The test system of series [12] is CCRF-CEM. As to the kind of experiment: Cytotoxicity against vinblastine-resistant human CCRF-CEM cells after 72 hrs by XTT assay. It is filed as functional, cell-based.
The test system of series [13] is CCRF-CEM. As to the kind of experiment: Cytotoxicity against human CCRF-CEM cells after 72 hrs by XTT assay. It is filed as functional, cell-based.
The subject of series [14] is MCF7. As to the kind of experiment: Cytotoxicity against human MCF7 cells after 72 hrs by alamar blue assay. As to conditions: MCF7, 72 h. It is filed as functional, cell-based.
Series [15] deals with NCI/ADR-RES. Kind of series: Antitumor activity against human MCF7/ADR cells xenografted in nu/nu nude mouse at 100 mg/kg, iv administered as injection in Q2D x 6 schedule. It is filed as functional, organism-based. Further details: dose 100 mg/kg.
A short description of series [16]: Cytotoxicity against human H1299 cells after 72 hrs by alamar blue assay. It is filed as functional, cell-based. As to conditions: NCI-H1299, 72 h.
Series [17] relates to Mus musculus. As to the kind of experiment: Toxicity in nu/nu nude mouse assessed as body weight loss at 150 mg/kg, iv administered as injection in Q2D x 5 schedule measured on day 18. Further details: dose 150 mg/kg, route intravenous. As to conditions: in vivo. The class given is organism-based.
The subject of series [18] is HCT-116. Kind of series: Cytotoxicity against human HCT116 cells after 72 hrs by SRB assay. It is filed as functional, cell-based. As to conditions: HCT-116, 72 h.
In series [19] the test system is MX1. As to the kind of experiment: Cytotoxicity against human MX1 cells after 72 hrs by SRB assay. The class given is functional, cell-based. To be noted: MX1, 72 h.
Series [20] concerns Nucleic Acid. Kind of series: Binding affinity to DNA in human H1299 cells assessed as formation of DNA cross-links after irradiation by modified single cell gel electrophoresis comet assay. It is filed as cell-based.
The test system of series [21] is Mus musculus. Kind of series: Toxicity in nu/nu nude mouse assessed as body weight loss at 150 mg/kg, iv administered as injection in Q2D x 5 schedule measured on day 16. The class given is organism-based. Further details: dose 150 mg/kg, route intravenous. As to conditions: in vivo.
Series [22] deals with Nucleic Acid. Kind of series: Binding affinity to DNA in human H1299 cells assessed as formation of DNA cross-links at 10 uM followed by irradiation by modified single cell gel electrophoresis comet assay. The class given is cell-based.
The test system of series [23] is Nucleic Acid. As to the kind of experiment: Binding affinity to DNA in human H1299 cells assessed as formation of DNA cross-links at 200 uM followed by irradiation by modified single cell gel electrophoresis comet assay. It is filed as cell-based.
Series [24] relates to MX1. Kind of series: Antitumor activity against human MX1 cells xenografted in nu/nu nude mouse assessed as complete tumor remission at 100 mg/kg, iv administered as injection in Q2D x 5 schedule measured on day 18. The class given is functional, organism-based. Also on record: dose 100 mg/kg.
In series [25] the test system is MX1. Kind of series: Antitumor activity against human MX1 cells xenografted in nu/nu nude mouse assessed as complete tumor remission at 100 mg/kg, iv administered as injection in Q2D x 5 schedule measured on day 70. It is filed as functional, organism-based. Further details: dose 100 mg/kg.
The test system of series [26] is Mus musculus. Kind of series: Toxicity in nu/nu nude mouse assessed as body weight loss at 100 mg/kg, iv administered as injection in Q2D x 5 schedule measured on day 16. The class given is organism-based. Further details: dose 100 mg/kg, route intravenous. To be noted: in vivo.

The IC50 is the concentration that inhibits the measured activity by half. A lower IC50 goes with higher potency. What is called half-life is the time in which the quantity being followed falls by half.

Calls of active or inactive are those of the source. The rule behind the calls is not given here.

For `Cc1cc(NC(=O)Nc2ccc(N(CCCl)CCCl)cc2)c2ccccc2n1`, the result in [1], in series [2], in series [9] and in series [15] was Active. In addition, the IC50 was 9.45 µM in series [3]; 9.52 µM in series [5]; 0.429 µM in series [8]; 9.02 µM in series [11]; 0.664 µM in [12]; 0.193 µM in series [13]. Further, the IC50 was 9.08 µM in series [14], 1.98 µM in series [16], 1.42 µM in [18] and 0.343 µM in [19]. In addition, the half-life in series [4] is 16.5 h. Further, the “Ratio IC50” value in [6] came out at 3.4; in series [10], 2.2. Also, the Activity result in [7] is “Non-toxic”; in series [17], “Non-toxic”; in series [20] it was “Dose-dependent effect”; in [21] it was 2%; in [22] it was 31.3%.

For `N[C@@H](Cc1ccc(N(CCCl)CCCl)cc1)C(=O)O`, the Activity in [23] stood at 39.7%.

As for `COc1cccc(-c2cc(NC(=O)NNc3ccc(N(CCCl)CCCl)cc3)c3cc(OC)ccc3n2)c1`, the IC50 was 11 µM in series [3]; 6.45 µM in series [5]; 2.15 µM in [8]; 11.7 µM in [11]; 1.62 µM in series [12]; 0.552 µM in [13]. The IC50 came to 15.4 µM in series [14], 5.99 µM in [16], 3.44 µM in series [18] and 3.46 µM in [19]. Besides, the figures for the “Ratio IC50” value in series [6] and in series [10] were 2.94 and 3.9, respectively. Besides, the result in series [9] was Active.

For `COc1cccc(-c2cc(NC(=O)Nc3ccc(N(CCCl)CCCl)cc3)c3cc(OC)ccc3n2)c1`, the result in series [24] and in [25] was Active. The IC50 in [3] turned out to be 3.82 µM; in [5], 5.88 µM; in series [8], 0.588 µM; in series [11], 4.73 µM; in series [12] it was 0.557 µM; in [13], 0.362 µM. For the same molecule, the IC50 was 3.04 µM in series [14], 5.69 µM in series [16], 3.69 µM in [18] and 1.83 µM in series [19]. In addition, the “Ratio IC50” value was determined as 1.53 in series [6] and 1.62 in series [10]. Moreover, the Activity in [26] was 13%.

The values are drawn from ChEMBL document CHEMBL1157637, “Potent DNA-directed alkylating agents: Synthesis and biological activity of phenyl N-mustard-quinoline conjugates having a urea or hydrazinecarboxamide linker” (Bioorg Med Chem, 2010).
